These results are taken from patent publication US20230139171A1 (SITA Information Networking Computing UK Limited, priority 2019, published 2023).

In experiment [1] the target is T1, human TLR8 (Homo sapiens, UniProt Q9NR97).
T1 construct: host or cells: HEK-Blue cells
T1 sequence (Q9NR97 27-1041): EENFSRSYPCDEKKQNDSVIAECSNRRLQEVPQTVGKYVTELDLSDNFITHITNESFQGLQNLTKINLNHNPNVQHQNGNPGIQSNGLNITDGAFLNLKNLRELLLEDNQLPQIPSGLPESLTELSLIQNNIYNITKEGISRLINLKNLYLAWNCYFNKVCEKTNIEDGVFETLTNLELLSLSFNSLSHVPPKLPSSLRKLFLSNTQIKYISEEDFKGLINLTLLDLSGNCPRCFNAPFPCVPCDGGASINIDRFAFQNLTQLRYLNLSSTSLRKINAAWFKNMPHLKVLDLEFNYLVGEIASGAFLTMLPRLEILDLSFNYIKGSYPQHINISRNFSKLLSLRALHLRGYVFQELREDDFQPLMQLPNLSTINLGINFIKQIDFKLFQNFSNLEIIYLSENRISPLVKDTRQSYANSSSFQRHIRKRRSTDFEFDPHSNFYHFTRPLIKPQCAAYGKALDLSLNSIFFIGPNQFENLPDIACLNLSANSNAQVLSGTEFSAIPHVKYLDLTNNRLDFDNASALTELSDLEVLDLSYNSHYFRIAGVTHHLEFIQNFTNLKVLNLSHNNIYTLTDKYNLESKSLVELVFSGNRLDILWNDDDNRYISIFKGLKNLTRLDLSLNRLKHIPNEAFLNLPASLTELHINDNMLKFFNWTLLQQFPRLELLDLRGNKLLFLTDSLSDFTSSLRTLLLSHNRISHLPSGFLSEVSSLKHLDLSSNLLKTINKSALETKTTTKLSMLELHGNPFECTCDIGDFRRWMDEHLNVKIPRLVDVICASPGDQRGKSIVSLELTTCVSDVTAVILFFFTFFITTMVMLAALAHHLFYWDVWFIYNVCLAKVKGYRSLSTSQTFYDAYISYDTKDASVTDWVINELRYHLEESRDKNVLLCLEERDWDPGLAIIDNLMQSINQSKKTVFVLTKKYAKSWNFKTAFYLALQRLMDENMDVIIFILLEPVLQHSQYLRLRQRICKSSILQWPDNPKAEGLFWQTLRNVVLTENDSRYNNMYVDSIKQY
Nature of the experiment: TLR8 inhibition reporter assay (HEK-Blue cells, SEAP reporter, R848 stimulation). It is filed as cell-based. The following applies: HEK-Blue cells overexpressing human TLR8, SEAP reporter, R848 15.9 μM; read-out: TLR8 IC50. In short, it runs like this:
(§1)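 Agonists used: gardiquimod 7.5 μM (TLR7), R848 15.9 μM (TLR8), ODN2006 5 nM (TLR9), added after 30 min room-temperature compound pre-treatment (0.05 nM–50 μM) of receptor-overexpressing HEK-Blue cells. SEAP reporter (NF-κB/AP-1 driven) read after 22 h at 37 °C; inhibition scaled between agonist+DMSO and reference-inhibitor wells.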

The target in experiment [2] is T2, human TLR9 (Homo sapiens, UniProt Q9NR96).
T2 construct: host or cells: HEK-Blue cells
T2 sequence (Q9NR96 26-1032): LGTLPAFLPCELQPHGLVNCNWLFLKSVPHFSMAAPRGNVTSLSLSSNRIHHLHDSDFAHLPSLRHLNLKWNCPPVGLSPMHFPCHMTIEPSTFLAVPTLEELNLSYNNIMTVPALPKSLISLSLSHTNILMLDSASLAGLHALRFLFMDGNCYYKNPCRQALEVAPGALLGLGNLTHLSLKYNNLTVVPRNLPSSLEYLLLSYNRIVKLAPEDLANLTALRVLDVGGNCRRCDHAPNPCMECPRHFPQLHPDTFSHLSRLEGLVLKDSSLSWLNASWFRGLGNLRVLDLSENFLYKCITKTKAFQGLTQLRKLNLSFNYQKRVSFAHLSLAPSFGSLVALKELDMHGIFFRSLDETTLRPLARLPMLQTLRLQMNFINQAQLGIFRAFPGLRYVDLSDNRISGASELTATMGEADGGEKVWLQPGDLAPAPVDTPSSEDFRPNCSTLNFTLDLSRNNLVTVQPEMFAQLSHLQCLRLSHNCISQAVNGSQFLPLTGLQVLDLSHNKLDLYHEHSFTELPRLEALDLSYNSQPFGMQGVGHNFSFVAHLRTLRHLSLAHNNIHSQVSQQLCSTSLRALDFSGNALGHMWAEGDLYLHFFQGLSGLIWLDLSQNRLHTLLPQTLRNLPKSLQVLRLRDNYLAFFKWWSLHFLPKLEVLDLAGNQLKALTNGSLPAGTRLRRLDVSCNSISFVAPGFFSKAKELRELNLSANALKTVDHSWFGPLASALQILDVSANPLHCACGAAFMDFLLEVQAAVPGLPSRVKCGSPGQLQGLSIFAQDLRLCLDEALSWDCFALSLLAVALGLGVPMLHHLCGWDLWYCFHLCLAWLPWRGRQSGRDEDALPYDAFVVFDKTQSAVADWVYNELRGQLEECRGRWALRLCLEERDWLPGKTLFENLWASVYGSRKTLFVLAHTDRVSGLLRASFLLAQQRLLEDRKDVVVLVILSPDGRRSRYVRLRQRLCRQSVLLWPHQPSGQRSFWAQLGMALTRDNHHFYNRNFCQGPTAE
Nature of the experiment: TLR9 inhibition reporter assay (HEK-Blue cells, SEAP reporter, ODN2006 stimulation). The experiment is classed as cell-based. Particulars: HEK-Blue cells overexpressing human TLR9, SEAP reporter, ODN2006 5 nM. In outline: as §1
For orientation: In a reporter assay the amount or activity of a reporter protein is the signal.

The IC50 is the concentration that gives 50% inhibition. As for `COc1cc(-c2[nH]c3sc(C4CCC(NC5COC5)CC4)nc3c2C(C)C)cn2ncnc12` (single isomer, unassigned) [Example 65, N-(4-(6-isopropyl-5-(8-methoxy-[1,2,4]triazolo[1,5-a]pyridin-6-yl)-4H-pyrrolo[3,2-d]thiazol-2-yl)cyclohexyl)oxetan-3-amine], the 50% inhibitory concentration (IC50) was 0.00137 µM in experiment [1] and 10.1 µM in experiment [2].
